From patent publication US12691107B2, “Methods for the treatment and prevention of lung infections caused by gram-positive bacteria, fungus, or virus by administration of tafenoquine” (priority 2020, dated 2026)
Like-named read-outs stand apart in the source and are kept apart here.

How the values were obtained:
Exserohilum sp. = experiment: Antifungal MIC (RPMI-1640 microdilution); type: cell-based
Aspergillus flavus = experiment: Antifungal MIC (RPMI-1640 microdilution); type: cell-based
Apophysomyces sp. = experiment: Antifungal MIC (RPMI-1640 microdilution); type: cell-based
[1] = in vivo, cited from earlier work
[2] = tested on: HFF, mouse embryo fibroblast and Guinea Pig Lung cells; conditions: range over all three cytomegalovirus assays

| Structure (SMILES) | MIC50 (Exserohilum sp.; read-out: MIC 50% inhibition, isolate Exser1) [µg/mL] | MIC (Exserohilum sp.; read-out: MIC 100% inhibition, isolate Exser1) [µg/mL] | MIC50 (Aspergillus flavus; ATCC204304, read-out: MIC 50% inhibition, isolate ATCC 204304) [µg/mL] | MIC (Aspergillus flavus; ATCC204304, read-out: MIC 100% inhibition, isolate ATCC 204304) [µg/mL] | MIC50 (Aspergillus flavus; read-out: MIC 50% inhibition, isolate Aflav2) [µg/mL] | MIC50 (Aspergillus flavus; read-out: MIC 50% inhibition, isolate Aflav3) [µg/mL] | MIC (Aspergillus flavus; read-out: MIC 100% inhibition, isolate Aflav2) [µg/mL] | MIC (Aspergillus flavus; read-out: MIC 100% inhibition, isolate Aflav3) [µg/mL] | MIC50 (Apophysomyces sp.; read-out: MIC 50% inhibition, isolate Apo1) [µg/mL] | MIC50 (Apophysomyces sp.; read-out: MIC 50% inhibition, isolate Apo2) [µg/mL] | MIC50 (Apophysomyces sp.; read-out: MIC 50% inhibition, isolate Apo3) [µg/mL] | MIC (Apophysomyces sp.; read-out: MIC 100% inhibition, isolate Apo1) [µg/mL] | MIC (Apophysomyces sp.; read-out: MIC 100% inhibition, isolate Apo2) [µg/mL] | MIC (Apophysomyces sp.; read-out: MIC 100% inhibition, isolate Apo3) [µg/mL] | Cmax of a single dose of 200 mg ([1]; 200 mg) | Cmax following a single dose [1] | dose proportionality of pharmacokinetics [1] | steady state Cmax [1] [nanogram/ml] | steady state concentrations in 95% of individuals [1] | CC50s [2] [µM] |
| --- | --- | --- | --- | --- | --- | --- | --- | --- | --- | --- | --- | --- | --- | --- | --- | --- | --- | --- | --- | --- |
| COc1cc(C)c2c(Oc3cccc(C(F)(F)F)c3)c(OC)cc(NC(C)CCCN)c2n1.O=C(O)CCC(=O)O (centres unmarked) [Tafenoquine Succinate] | 4 | 8 | 4 | 4 | 8 | 4 | 16 | 8 | 8 | 2 | 16 | 8 | 4 | 32 |  |  |  |  |  |  |
| COc1cc(C)c2c(Oc3cccc(C(F)(F)F)c3)c(OC)cc(NC(C)CCCN)c2n1 (centres unmarked) [Tafenoquine, N(4)-[2,6-Dimethoxy-4-methyl-5-[3-(trifluoromethyl)phenoxy]quinolin-8-yl]pentane-1,4-diamine] |  |  |  |  |  |  |  |  |  |  |  |  |  |  | [147 ng/ml *4.4]. | approximately 90 nanogram/ml | proportional with the dose administered in the therapeutic range | 300 | above 80 nanogram/ml | 13 to 17 |
